The test system of the assay is lymphocytic leukemia P388 cells. Kind of assay: screening of cytostatic activity using lymphocytic leukemia P388 cells. It is filed as cell-based. The text has this:
The screening of cytostatic activity was made using lymphocytic leukemia P388 cells.

From patent US5654399A, “Tetrapeptide derivative having antitumor activity” (Teikoku Hormone Mfg. Co., Ltd., priority 1991, dated 1997) come the findings set out here.

Converted amounts (≈) assume the structure as drawn.

In turn, `CC[C@H](C)[C@@H]([C@@H](CC(=O)N1CCC[C@H]1[C@H](OC)[C@@H](C)C(=O)N[C@@H](Cc1ccccc1)c1nccs1)OC)N(C)C(=O)[C@@H](NC(=O)[C@H](C(C)C)N(C)C)C(C)C` [Dolastatin 10] had an ED50 of 0.7 ng/mL (≈ 0.892 nM).
